We go through three molecules from publication PMC11298695.

SMILES strings stand for the structures. In brackets after ≈: the same amount, converted by molar mass. Where two headings read alike, the source gives them in different places. Where only a bound is given, the exact number is not on record here.

A short description of series [1]: Powder dissolution (apparent solubility) in pH 6.8 phosphate buffer and water. Format: physicochemical. As for the experimental part:
A Model 1,525 system (Waters Corporation, Milford MA, United States) equipped with a photodiode array (PDA) detector (Waters 2998, Milford MA, United States) and a SunFire C18 column (4.6 mm × 250 mm, 5 μm, Waters, Ireland) was used for HPLC analysis. The column temperature was maintained at 37°C and the autosampler temperature was room temperature. The mobile phase consisted of methanol and H2O (70:30, v/v) at a flow rate of 1.0 mL/min. The detection wavelength of the UV detector was 248 nm and the injection volume of sample was 20 µL. The standard curve ranged from 10 μg/mL to 0.078125 μg/mL. […] The powders were sieved using standard sieves to control particle size within 75–150 µm. […] The filtrates were diluted to an appropriate concentration, and analyzed using HPLC.

In series [2] the test system is Caco-2 cells. The experiment in a line: in vitro. Format: cell-based. The following applies: Caco-2, CCK-8.
Series [3] is described as follows: in vitro. It counts as cell-based. The settings on record: human, Caco-2 cells, read-out: cell viability; for viability at 24 h: Caco-2, 24 h.
Series [4] is described as follows: Environmental pH of dissolution media. It counts as physicochemical.
Series [5] has as its system Caco-2 cell monolayer. Kind of series: Caco-2 cell monolayer transport of DAI (AP to BL). It counts as in vitro ADME. The settings on record: 120 min. As for the experimental part: (§1) Caco-2 cells were seeded on 12-well Transwell® (Corning Costar, Lowell, MA, United States) culture plates (pore size 0.4 µm, surface area 1.12 cm^2) at 5 × 10^4 cells/mL. On the 3rd, 5th, 7th, 13th, 18th, and 21st days of culture, the transepithelial electrical resistance (TEER) value was measured using an EVOM2 transmembrane resistance meter (Millipore, United States) to evaluate the integrity of the Caco-2 cell monolayer.
(§2) After washing the Caco-2 cell monolayer twice with prewarmed Hank’s Balanced Salt Solution (HBSS), the transport experiments were performed by adding the final concentration of DAI (0.5 mL) to the apical side (AP) as the donor chamber, and adding HBSS (1.5 mL) to the basolateral side (BL) as the receiving chamber. The plate was incubated at 37°C and 200 μL of sample was collected from the BL side at 30, 45, 60, 90, and 120 min. […]
(§3) The apparent permeability coefficient (P app ) for DAI was calculated using Eq. 3 ([Ndayishimiye et al., 2022]). Papp=dQ/dt∗1/A∗C0 cm/s (3) where Q refers to the cumulative transport amount, i.e., the total drug quantity on the receiving side (μg); dQ/dt represents the transport rate of the drug through the Caco-2 cell monolayer (μg/s); A denotes the chamber membrane area (1.12 cm^2); and C0 is the initial concentration of DAI on the AP side (μg/mL).
For orientation: Caco-2 monolayers are a common model of the intestinal barrier.

Series [6] in a line: Caco-2 cell monolayer transport of DAI (AP to BL). Format: in vitro ADME. The settings on record: human, Caco-2, DAI 50 μg/mL, read-out: apparent permeability coefficient (P app). As for the experimental part:
as §1, §2, §3

The conditions of series [7]: no reference given; cited from earlier work.
The nature of series [8]: in vivo. The following applies: male, dog, plasma, beagle dogs, oral, 40 mg/kg.
The conditions of series [9]: ref Nan et al., 2014, Panizzon et al., 2019; cited from earlier work.
Series [10] in a line: Efflux function of the Caco-2 cell model with Rhodamine 123. It counts as in vitro ADME. The following applies: human.

Broadly, the solubility is the concentration that dissolves in the medium under given conditions. For orientation: viability means a read-out of living cells in per cent, often relative to untreated cells. For orientation: Tmax means the time from dosing to the highest level. By Cmax is commonly meant the highest concentration seen after dosing. On to `O=c1c(-c2ccc(O)cc2)coc2cc(O)ccc12` [DAI, 4′,7-dihydroxyisoflavone], for which the “peak time of Smax” value in series [1] (pH 6.8 buffer) stood at 45 min. In addition, the solubility at 45 min in [1] (pH 6.8 phosphate buffer, aqueous buffer, thermodynamic from solid, pH 6.8 buffer, 37°C, powder dissolution, read-out: maximum apparent solubility (Smax)) is 1.01 ± 0.06 µg/mL (≈ 3.97 µM). Besides, the “time to reach Smax” value in [1] (water) is listed as at most 240 min. In addition, in series [1] (water, 37 °C, water, thermodynamic from solid, read-out: maximum apparent solubility (Smax)), the solubility at 240 min is 0.48 ± 0.09 µg/mL (≈ 1.89 µM). For the same molecule, the “effect on Caco-2 cells” value in series [2] is given as “dose-dependent inhibitory effect”. Moreover, the viability at 24 h is 87% in series [3] (1st of five listed concentrations (not assigned)); 88.1% in series [3] (2nd of five listed concentrations (not assigned)); 94.7% in [3] (3rd of five listed concentrations (not assigned)); 98% in [3] (4th of five listed concentrations (not assigned)); 94% in [3] (5th of five listed concentrations (not assigned)). The “environmental pH” value in series [4] (medium pH6.8 buffer) came to 6.74 ± 0.03; in [4] (medium water (pH 7.0)) it was 3.80 ± 0.06. The “cumulative transport of DAI” value in series [5] was 9.19 ± 0.65 µg. Further, the Papp at 120 min, 50 μg/mL in [6] was found to be 22.8 ± 1.6 ×10⁻⁶ cm/s. Moreover, the pK a in series [7] is reported as 7.43. Besides, the Tmax in [8] was 49.8 ± 8.4 min. In series [8], the Cmax was 210 ± 40 ng/mL. For the same molecule, the AUC in series [8] (read-out: AUC0∼24) was 1740 ± 150 ng·h/mL. In series [9], the water solubility was 0.31 µg/mL (≈ 1.22 µM).
Turning to `C1CNCCN1` [PIP, Piperazine], the viability at 24 h, 16.94 μg/mL in series [3] (Caco-2, PIP 16.94 μg/mL) is 85.2%.
By Papp A→B is commonly meant the apparent permeability from the apical to the basolateral side of a cell layer. A higher Papp A→B goes with fast passage. As a reminder, the Papp B→A is how fast a substance crosses the layer from the basolateral side. On to `COC(=O)c1ccccc1-c1c2ccc(=N)cc-2oc2cc(N)ccc12` [Rhodamine 123], for which, in series [10] (120 min), the Papp A→B at 120 min turned out to be 0.179 ± 0.061 ×10⁻⁶ cm/s and the Papp B→A at 120 min is 0.852 ± 0.016 ×10⁻⁶ cm/s. The efflux ratio at 120 min in series [10] (Papp BL→AP / Papp AP→BL, read-out: Efflux ratio (ER)) was 4.76.
